Assay results published in ChEMBL document CHEMBL4321854, “Discovery of a First-in-Class Mitogen-Activated Protein Kinase Kinase 1/2 Degrader” (J Med Chem, 2019).
Activity calls are given as the source filed them. The rule behind the calls is not given here.

What was measured:
[1] = biological target: T1, von Hippel-Lindau disease tumor suppressor/Dual specificity mitogen-activated protein kinase kinase 1 (Homo sapiens) (UniProt Q02750+P40337); assay: Protac activity against VHL/MEK1 in human SK-MEL-28 cells harboring with BRAF V600E variant assessed as degradation of MEK1 by measuring reduction in MEK1 protein level at 0.3 uM after 4 hrs by Western blot analysis relative to control; format: cell-based; design: scale not given: the % may be the effect or the level left
[2] = biological target: T2, von Hippel-Lindau disease tumor suppressor/Dual specificity mitogen-activated protein kinase kinase 2 (Homo sapiens) (UniProt P36507+P40337); assay: Protac activity against VHL/MEK2 in human HT-29 cells harboring with BRAF V600E variant assessed as degradation of MEK2 by measuring reduction in MEK2 protein level at 0.1 uM after 10 hrs by LC-MS based Volcano plot analysis; format: cell-based
[3] = biological target: T1, von Hippel-Lindau disease tumor suppressor/Dual specificity mitogen-activated protein kinase kinase 1 (Homo sapiens); assay: Protac activity against VHL/MEK1 in human SK-MEL-28 cells harboring with BRAF V600E variant assessed as degradation of MEK1 by measuring reduction in MEK1 protein level at 0.3 uM after 8 hrs by Western blot analysis relative to control; format: cell-based; design: scale not given: the % may be the effect or the level left
[4] = biological target: T1, von Hippel-Lindau disease tumor suppressor/Dual specificity mitogen-activated protein kinase kinase 1 (Homo sapiens); assay: Protac activity against VHL/MEK1 in human HT-29 cells harboring with BRAF V600E variant assessed as degradation of MEK1 by measuring reduction in MEK1 protein level at 0.3 uM after 8 hrs by Western blot analysis relative to control; format: cell-based; design: scale not given: the % may be the effect or the level left
[5] = biological target: T2, von Hippel-Lindau disease tumor suppressor/Dual specificity mitogen-activated protein kinase kinase 2 (Homo sapiens); assay: Protac activity against VHL/MEK2 in human HT-29 cells harboring BRAF V600E variant assessed as degradation of MEK2 by measuring reduction in MEK2 protein level at 0.5 uM after 24 hrs by Western blot analysis relative to control; format: cell-based; design: scale not given: the % may be the effect or the level left
[6] = biological target: T1, von Hippel-Lindau disease tumor suppressor/Dual specificity mitogen-activated protein kinase kinase 1 (Homo sapiens); assay: Protac activity against VHL/MEK1 in human HT-29 cells harboring with BRAF V600E variant assessed as degradation of MEK1 at 0.1 to 0.3 uM by Western blot analysis; format: cell-based; conditions: TDE = time-dependent effect
[7] = biological target: T2, von Hippel-Lindau disease tumor suppressor/Dual specificity mitogen-activated protein kinase kinase 2 (Homo sapiens); assay: Protac activity against VHL/MEK2 in human HT-29 cells harboring with BRAF V600E variant assessed as degradation of MEK2 by measuring MEK2 protein level at 0.3 uM pretreated with NEDD8-activating enzyme inhibitor, MLN4924 for 2 hrs followed by incubation with compound for 10 hrs by Western blot analysis; format: cell-based
[8] = biological target: T1, von Hippel-Lindau disease tumor suppressor/Dual specificity mitogen-activated protein kinase kinase 1 (Homo sapiens); assay: Protac activity against VHL/MEK1 in human HT-29 cells harboring with BRAF V600E variant assessed as degradation of MEK1 by measuring reduction in MEK1 protein level at 0.3 uM after 4 hrs by Western blot analysis relative to control; format: cell-based; design: scale not given: the % may be the effect or the level left
[9] = biological target: T3, von Hippel-Lindau disease tumor suppressor/Dual specificity mitogen-activated protein kinase kinase 2/Dual specificity mitogen-activated protein kinase kinase 1 (Homo sapiens) (UniProt P36507+Q02750+P40337); assay: Protac activity against VHL/MEK1/2 in human HT-29 cells harboring with BRAF V600E variant assessed as phosphorylation of MEK at S218/222 residues at 0.3 uM pretreated with NEDD8-activating enzyme inhibitor, MLN4924 for 2 hrs followed by incubation with compound for 10 hrs by Western blot analysis; format: cell-based
[10] = biological target: T3, von Hippel-Lindau disease tumor suppressor/Dual specificity mitogen-activated protein kinase kinase 2/Dual specificity mitogen-activated protein kinase kinase 1 (Homo sapiens); assay: Protac activity against VHL/MEK1/2 in human HT-29 cells harboring with BRAF V600E variant assessed as phosphorylation of MEK at S218/222 residues at 0.3 uM pretreated with VHL ligand, VH 032 for 2 hrs followed by incubation with compound for 10 hrs by Western blot analysis; format: cell-based
[11] = biological target: T3, von Hippel-Lindau disease tumor suppressor/Dual specificity mitogen-activated protein kinase kinase 2/Dual specificity mitogen-activated protein kinase kinase 1 (Homo sapiens); assay: Protac activity against VHL/MEK1/2 in human SK-MEL-28 cells harboring with BRAF V600E variant assessed as reduction in phosphorylation of MEK at S218/222 residues after 24 hrs by Western blot analysis; format: cell-based
COLO 205 = assay: Antiproliferative activity against human COLO205 cells assessed as reduction in cell growth after 3 days by WST8 assay; format: functional
[12] = biological target: T1, von Hippel-Lindau disease tumor suppressor/Dual specificity mitogen-activated protein kinase kinase 1 (Homo sapiens); assay: Protac activity against VHL/MEK1 in human COLO205 cells harboring with BRAF V600E variant assessed as degradation of MEK1 at 3 to 5 uM after 24 hrs by Western blot analysis; format: cell-based
[13] = biological target: von Hippel-Lindau disease tumor suppressor/Cullin-9 (Homo sapiens) (UniProt P40337+Q8IWT3); assay: Protac activity against VHL/cullin9 in human HT-29 cells harboring with BRAF V600E variant assessed as cullin9 protein level at 0.1 uM after 10 hrs by Western blot analysis; format: cell-based
[14] = biological target: T1, von Hippel-Lindau disease tumor suppressor/Dual specificity mitogen-activated protein kinase kinase 1 (Homo sapiens); assay: Protac activity against VHL/MEK1 in human HT-29 cells harboring with BRAF V600E variant assessed as degradation of MEK1 by measuring MEK1 protein level at 0.3 uM pretreated with VHL ligand, VH 032 for 2 hrs followed by incubation with compound for 10 hrs by Western blot analysis; format: cell-based
[15] = biological target: T2, von Hippel-Lindau disease tumor suppressor/Dual specificity mitogen-activated protein kinase kinase 2 (Homo sapiens); assay: (§1) Protac activity against VHL/MEK2 in human HT-29 cells harboring BRAF V600E variant assessed as degradation of MEK2 after 24 hrs by Western blot analysis; format: cell-based
[16] = biological target: von Hippel-Lindau disease tumor suppressor/Dual specificity mitogen-activated protein kinase kinase 2 (Homo sapiens, UniProt P36507+P40337, V600E); assay: as §1; format: cell-based
[17] = Ratio of Plasma concentration in Swiss albino mouse at 50 mg/kg, ip measured after 8 hrs to GI50 for antiproliferative activity against human COLO205 cells; format: organism-based; conditions: in vivo
[18] = Toxicity in Swiss albino mouse assessed as effect on clinical signs at 50 mg/kg, ip; format: organism-based; conditions: in vivo
[19] = biological target: T3, von Hippel-Lindau disease tumor suppressor/Dual specificity mitogen-activated protein kinase kinase 2/Dual specificity mitogen-activated protein kinase kinase 1 (Homo sapiens); assay: Protac activity against VHL/MEK1/2 in human UACC257 cells harboring with BRAF V600E variant assessed as reduction in phosphorylation of MEK at S218/222 residues after 24 hrs by Western blot analysis; format: cell-based
[20] = biological target: T1, von Hippel-Lindau disease tumor suppressor/Dual specificity mitogen-activated protein kinase kinase 1 (Homo sapiens); assay: Protac activity against VHL/MEK1 in human HT-29 cells harboring with BRAF V600E variant assessed as degradation of MEK1 at 0.3 uM after 3 to 144 hrs by Western blot analysis; format: cell-based
[21] = biological target: T2, von Hippel-Lindau disease tumor suppressor/Dual specificity mitogen-activated protein kinase kinase 2 (Homo sapiens); assay: Protac activity against VHL/MEK2 in human HT-29 cells harboring with BRAF V600E variant assessed as degradation of MEK2 by measuring MEK2 protein level at 0.3 uM pretreated with VHL ligand, VH 032 for 2 hrs followed by incubation with compound for 10 hrs by Western blot analysis; format: cell-based
[22] = biological target: T2, von Hippel-Lindau disease tumor suppressor/Dual specificity mitogen-activated protein kinase kinase 2 (Homo sapiens); assay: Protac activity against VHL/MEK2 in human SK-MEL-28 cells harboring with BRAF V600E variant assessed as degradation of MEK2 at 0.1 to 0.3 uM by Western blot analysis; format: cell-based; conditions: TDE = time-dependent effect
SK-MEL-28 = assay: Antiproliferative activity against human SK-MEL-28 cells assessed as reduction in cell growth after 3 days by MTT assay; format: functional
[23] = biological target: T1, von Hippel-Lindau disease tumor suppressor/Dual specificity mitogen-activated protein kinase kinase 1 (Homo sapiens); assay: Protac activity against VHL/MEK1 in human SK-MEL-28 cells harboring with BRAF V600E variant assessed as degradation of MEK1 by measuring MEK1 protein level at 0.3 uM pretreated with VHL ligand, VH 032 for 2 hrs followed by incubation with compound for 10 hrs by Western blot analysis; format: cell-based
[24] = biological target: T2, von Hippel-Lindau disease tumor suppressor/Dual specificity mitogen-activated protein kinase kinase 2 (Homo sapiens); assay: Protac activity against VHL/MEK2 in human SK-MEL-28 cells harboring with BRAF V600E variant assessed as degradation of MEK2 by measuring MEK2 protein level at 0.3 uM pretreated with MEK1/2 inhibitor, PD0325901 for 2 hrs followed by incubation with compound for 10 hrs by Western blot analysis; format: cell-based

T1 sequence (P40337 whole entry, looked up): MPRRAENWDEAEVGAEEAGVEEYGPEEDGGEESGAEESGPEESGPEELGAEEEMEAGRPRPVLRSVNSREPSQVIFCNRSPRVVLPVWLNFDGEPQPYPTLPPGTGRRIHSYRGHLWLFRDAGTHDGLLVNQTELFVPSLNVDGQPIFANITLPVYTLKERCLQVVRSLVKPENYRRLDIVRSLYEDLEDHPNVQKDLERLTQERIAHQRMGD
T1 sequence (Q02750 whole entry, looked up): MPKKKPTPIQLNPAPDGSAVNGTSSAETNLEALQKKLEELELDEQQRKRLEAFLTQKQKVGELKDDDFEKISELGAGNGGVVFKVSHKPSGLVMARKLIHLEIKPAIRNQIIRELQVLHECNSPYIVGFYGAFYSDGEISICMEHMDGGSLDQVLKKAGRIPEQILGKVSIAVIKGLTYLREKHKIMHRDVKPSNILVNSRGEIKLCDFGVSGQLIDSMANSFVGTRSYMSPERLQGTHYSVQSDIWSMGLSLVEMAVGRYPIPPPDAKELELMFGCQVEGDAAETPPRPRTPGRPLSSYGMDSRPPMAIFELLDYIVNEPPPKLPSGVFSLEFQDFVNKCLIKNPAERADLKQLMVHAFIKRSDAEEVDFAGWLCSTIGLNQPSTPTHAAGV
T3 sequence (P36507 whole entry, looked up): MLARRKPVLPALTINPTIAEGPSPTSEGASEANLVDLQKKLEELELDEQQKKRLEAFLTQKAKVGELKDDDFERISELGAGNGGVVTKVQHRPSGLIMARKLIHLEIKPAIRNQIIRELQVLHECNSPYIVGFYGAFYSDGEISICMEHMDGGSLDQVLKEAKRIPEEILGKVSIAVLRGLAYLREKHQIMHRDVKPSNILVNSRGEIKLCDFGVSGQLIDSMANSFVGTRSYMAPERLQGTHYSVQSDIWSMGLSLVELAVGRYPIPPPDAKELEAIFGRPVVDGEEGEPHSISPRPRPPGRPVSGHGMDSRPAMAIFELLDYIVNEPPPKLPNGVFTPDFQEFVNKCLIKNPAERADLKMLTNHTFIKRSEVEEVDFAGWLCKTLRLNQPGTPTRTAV
T3 sequence (P40337 whole entry, looked up): as the sequence (P40337 whole entry, looked up) above
T3 sequence (Q02750 whole entry, looked up): as the sequence (Q02750 whole entry, looked up) above
T2 sequence (P36507 whole entry, looked up): as the sequence (P36507 whole entry, looked up) above
T2 sequence (P40337 whole entry, looked up): as the sequence (P40337 whole entry, looked up) above
Sequence of von Hippel-Lindau disease tumor suppressor/Cullin-9 (Homo sapiens) (P40337 whole entry, looked up): as above
Sequence of von Hippel-Lindau disease tumor suppressor/Cullin-9 (Homo sapiens) (Q8IWT3 whole entry, looked up): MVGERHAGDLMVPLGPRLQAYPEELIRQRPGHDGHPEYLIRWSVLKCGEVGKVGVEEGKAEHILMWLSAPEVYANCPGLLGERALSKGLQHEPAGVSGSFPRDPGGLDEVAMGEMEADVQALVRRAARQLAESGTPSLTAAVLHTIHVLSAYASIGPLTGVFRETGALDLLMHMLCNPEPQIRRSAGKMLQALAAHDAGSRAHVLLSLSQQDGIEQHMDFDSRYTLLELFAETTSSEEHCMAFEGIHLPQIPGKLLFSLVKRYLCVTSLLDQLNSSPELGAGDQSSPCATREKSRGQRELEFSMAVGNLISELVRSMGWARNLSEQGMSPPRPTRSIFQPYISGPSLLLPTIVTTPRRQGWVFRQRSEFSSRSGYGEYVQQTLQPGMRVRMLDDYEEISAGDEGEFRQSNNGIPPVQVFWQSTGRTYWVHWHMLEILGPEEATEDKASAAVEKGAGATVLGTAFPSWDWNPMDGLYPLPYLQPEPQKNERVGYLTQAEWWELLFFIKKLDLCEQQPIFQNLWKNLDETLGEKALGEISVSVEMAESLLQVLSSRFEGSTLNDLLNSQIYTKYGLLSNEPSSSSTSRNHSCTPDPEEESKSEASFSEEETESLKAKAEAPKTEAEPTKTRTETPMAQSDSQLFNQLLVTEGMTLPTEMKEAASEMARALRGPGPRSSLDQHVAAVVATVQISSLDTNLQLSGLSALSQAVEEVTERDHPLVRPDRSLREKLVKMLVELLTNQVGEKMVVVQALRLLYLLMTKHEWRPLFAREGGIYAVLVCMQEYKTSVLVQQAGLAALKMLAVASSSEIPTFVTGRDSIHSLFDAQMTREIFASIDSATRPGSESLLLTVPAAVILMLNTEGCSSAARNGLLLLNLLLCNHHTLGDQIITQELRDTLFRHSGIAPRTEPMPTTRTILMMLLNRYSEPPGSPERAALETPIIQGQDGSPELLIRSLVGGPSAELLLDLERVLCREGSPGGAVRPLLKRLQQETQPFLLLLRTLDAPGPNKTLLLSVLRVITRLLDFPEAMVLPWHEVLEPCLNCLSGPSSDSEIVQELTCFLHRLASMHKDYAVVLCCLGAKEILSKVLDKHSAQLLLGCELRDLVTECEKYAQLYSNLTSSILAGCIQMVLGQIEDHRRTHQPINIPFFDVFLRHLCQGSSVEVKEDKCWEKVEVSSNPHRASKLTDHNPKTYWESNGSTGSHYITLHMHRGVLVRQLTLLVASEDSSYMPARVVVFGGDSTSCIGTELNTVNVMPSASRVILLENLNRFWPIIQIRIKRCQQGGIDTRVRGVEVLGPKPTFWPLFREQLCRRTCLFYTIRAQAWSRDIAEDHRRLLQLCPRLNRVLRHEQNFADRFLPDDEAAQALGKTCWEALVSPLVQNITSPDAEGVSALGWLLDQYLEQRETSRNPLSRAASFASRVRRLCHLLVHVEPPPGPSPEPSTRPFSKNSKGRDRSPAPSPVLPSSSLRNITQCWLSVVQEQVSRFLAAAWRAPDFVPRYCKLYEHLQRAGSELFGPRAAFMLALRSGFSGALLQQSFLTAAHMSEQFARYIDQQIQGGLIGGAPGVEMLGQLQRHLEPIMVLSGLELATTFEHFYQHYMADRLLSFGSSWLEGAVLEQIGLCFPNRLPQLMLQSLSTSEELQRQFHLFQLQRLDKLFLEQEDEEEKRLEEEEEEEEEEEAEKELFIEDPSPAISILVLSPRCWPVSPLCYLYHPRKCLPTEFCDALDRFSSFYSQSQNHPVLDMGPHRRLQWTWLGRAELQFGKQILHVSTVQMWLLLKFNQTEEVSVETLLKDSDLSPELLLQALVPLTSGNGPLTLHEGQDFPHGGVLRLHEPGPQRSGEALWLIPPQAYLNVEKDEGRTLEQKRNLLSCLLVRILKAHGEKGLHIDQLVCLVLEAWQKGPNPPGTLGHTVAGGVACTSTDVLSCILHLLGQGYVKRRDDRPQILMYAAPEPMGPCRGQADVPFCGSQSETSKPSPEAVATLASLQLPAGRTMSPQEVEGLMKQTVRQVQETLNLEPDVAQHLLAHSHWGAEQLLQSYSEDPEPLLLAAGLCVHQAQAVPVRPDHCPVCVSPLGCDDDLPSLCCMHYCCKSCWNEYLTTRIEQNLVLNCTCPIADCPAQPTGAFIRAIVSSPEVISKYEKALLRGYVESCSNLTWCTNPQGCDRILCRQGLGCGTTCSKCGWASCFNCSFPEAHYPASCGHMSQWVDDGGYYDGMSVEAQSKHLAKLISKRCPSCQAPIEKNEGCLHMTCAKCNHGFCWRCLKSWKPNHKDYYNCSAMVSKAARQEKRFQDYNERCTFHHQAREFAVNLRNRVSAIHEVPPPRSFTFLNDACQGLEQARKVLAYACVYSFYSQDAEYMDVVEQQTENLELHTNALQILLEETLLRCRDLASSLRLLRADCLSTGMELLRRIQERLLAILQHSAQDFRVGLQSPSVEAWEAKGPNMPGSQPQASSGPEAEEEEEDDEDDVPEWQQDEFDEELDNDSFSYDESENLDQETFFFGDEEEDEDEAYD
Sequence of von Hippel-Lindau disease tumor suppressor/Dual specificity mitogen-activated protein kinase kinase 2 (P36507 whole entry, looked up, stated change not applied): as the sequence (P36507 whole entry, looked up) above
Sequence of von Hippel-Lindau disease tumor suppressor/Dual specificity mitogen-activated protein kinase kinase 2 (P40337 whole entry, looked up, stated change not applied): as the sequence (P40337 whole entry, looked up) above

## Cc1ncsc1-c1ccc([C@H](C)NC(=O)[C@@H]2C[C@@H](O)CN2C(=O)[C@@H](NC(=O)CCCCCCCCCCNCCCONC(=O)c2ccc(F)c(F)c2Nc2ccc(I)cc2F)C(C)(C)C)cc1
[1]
  Activity: > 50%
[2]
  Activity: Active
[3]
  Activity: > 80%
[4]
  Activity: > 80%
[5]
  Activity: > 80%
[6]
  Activity: Tde
[7]
  Activity: inactive
[8]
  Activity: > 50%
[9]
  Activity: inactive
[10]
  Activity: inactive
[11]
  Activity: Dose-dependent effect
COLO 205
  growth inhibition (GI): Dose-dependent effect
COLO 205; COLO 205, 72 h
  GI50: 0.03 to 0.2 µM
[12]
  Activity: Active
[13]
  Activity: inactive
[14]
  Activity: inactive
[15]
  Activity: Dose-dependent effect
[16]
  DC50: 0.017 µM
[17]
  Ratio: 3 to 20
[18]
  Activity: Non-Toxic
[19]
  Activity: Dose-dependent effect
[20]
  Activity: Active
[21]
  Activity: inactive
[22]
  Activity: Tde
SK-MEL-28
  growth inhibition (GI): Dose-dependent effect
SK-MEL-28; SK-MEL-28, 72 h
  GI50: 0.083 µM
[23]
  Activity: inactive
[24]
  Activity: inactive
